Assay results taken from BindingDB's records for doi:10.1021/jm500763m (Beijing Institute of Pharmacology & Toxicology, 2014).
Square brackets hold non-standard residues; d marks the D form. Peptide text beside a SMILES is read from it. * marks the point of attachment. X1 = C=CCOC(=O)[C@]12CC[C@@H](C(=C)C)[C@@H]1[C@H]1CC[C@@H]3[C@@]4(C)CC[C@H](OC(=O)CCc5cn(CC(=O)*)nn5)C(C)(C)[C@@H]4CC[C@@]3(C)[C@]1(C)CC2; X9 = C=CCOC(=O)[C@]12CC[C@@H](C)[C@H](C)[C@H]1C1=CC[C@@H]3[C@@]4(C)CC[C@H](OC(=O)CCc5cn(CC(=O)*)nn5)C(C)(C)[C@@H]4CC[C@@]3(C)[C@]1(C)CC2; X3 = C=C(C)[C@@H]1CC[C@]2(C(=O)O)CC[C@]3(C)[C@H](CC[C@@H]4[C@@]5(C)CC[C@H](OC(=O)CCc6cn(CC(=O)*)nn6)C(C)(C)[C@@H]5CC[C@]43C)[C@@H]12; X5 = C=C(C)[C@@H]1CC[C@]2(C(=O)OCc3cn(CC(=O)*)nn3)CC[C@]3(C)[C@H](CC[C@@H]4[C@@]5(C)CC[C@H](OC(C)=O)C(C)(C)[C@@H]5CC[C@]43C)[C@@H]12; X2 = C=CCOC(=O)[C@]12CCC(C)(C)C[C@H]1C1=CC[C@@H]3[C@@]4(C)CC[C@H](OC(=O)CCc5cn(CC(=O)*)nn5)C(C)(C)[C@@H]4CC[C@@]3(C)[C@]1(C)CC2; X4 = C=C(C)[C@@H]1CC[C@]2(C(=O)OCc3cn(CC(=O)*)nn3)CC[C@]3(C)[C@H](CC[C@@H]4[C@@]5(C)CC[C@H](O)C(C)(C)[C@@H]5CC[C@]43C)[C@@H]12; X11 = CCCc1cn(CC(=O)*)nn1; βAla = NCCC(=O)O

test: Inhibition of HIV1 gp41-induced cell-cell fusion between viral envelope expressing human HL2/3 cells to CD4/CCR5 receptor expressing TZM-bl cells after 6 to 8 hrs by luciferase assay

Structure (SMILES)	EC50
C=C(C)[C@@H]1CC[C@]2(C(=O)O)CC[C@]3(C)[C@H](CC[C@@H]4[C@@]5(C)CC[C@H](O)C(C)(C)[C@@H]5CC[C@]43C)[C@@H]12	> 100000 nM
CC[C@H](C)[C@H](NC(=O)[C@H](CC(C)C)NC(=O)[C@H](CO)NC(=O)[C@H](Cc1cnc[nH]1)NC(=O)[C@@H](NC(=O)[C@H](CC(C)C)NC(=O)[C@H](CO)NC(=O)[C@@H](NC(=O)[C@H](Cc1ccc(O)cc1)NC(=O)[C@H](CC(N)=O)NC(=O)[C@H](CC(N)=O)NC(C)=O)[C@@H](C)O)[C@@H](C)CC)C(=O)N[C@@H](CCC(=O)O)C(=O)N[C@@H](CCC(=O)O)C(=O)N[C@@H](CO)C(=O)N[C@@H](CCC(N)=O)C(=O)N[C@@H](CC(N)=O)C(=O)N[C@@H](CCC(N)=O)C(=O)N[C@@H](CCC(N)=O)C(=O)N[C@@H](CCC(=O)O)C(=O)N[C@@H](CCCCN)C(=O)N[C@@H](CC(N)=O)C(=O)N[C@@H](CCC(=O)O)C(=O)N[C@@H](CCC(N)=O)C(=O)N[C@@H](CCC(=O)O)C(=O)N[C@@H](CC(C)C)C(=O)N[C@@H](CC(C)C)C(N)=O (Ac-NNYTSLIHSLIEESQNQQEKNEQELL-NH2)	3240 nM
C=CCOC(=O)[C@]12CCC(C)(C)C[C@H]1C1=CC[C@@H]3[C@@]4(C)CC[C@H](OC(=O)CCc5cn(CC(=O)NCCCC[C@H](NC(=O)CCNC(=O)[C@H](CC(C)C)NC(=O)[C@H](CC(C)C)NC(=O)[C@H](CCC(=O)O)NC(=O)[C@H](CCC(N)=O)NC(=O)[C@H](CCC(=O)O)NC(=O)[C@H](CC(N)=O)NC(=O)[C@H](CCCCN)NC(=O)[C@H](CCC(=O)O)NC(=O)[C@H](CCC(N)=O)NC(=O)[C@H](CCC(N)=O)NC(=O)[C@H](CC(N)=O)NC(=O)[C@H](CCC(N)=O)NC(=O)[C@H](CO)NC(=O)[C@H](CCC(=O)O)NC(=O)[C@H](CCC(=O)O)NC(=O)[C@@H](NC(=O)[C@H](CC(C)C)NC(=O)[C@H](CO)NC(=O)[C@H](Cc6cnc[nH]6)NC(=O)[C@@H](NC(=O)[C@H](CC(C)C)NC(=O)[C@H](CO)NC(=O)[C@@H](NC(=O)[C@H](Cc6ccc(O)cc6)NC(=O)[C@H](CC(N)=O)NC(=O)[C@H](CC(N)=O)NC(C)=O)[C@@H](C)O)[C@@H](C)CC)[C@@H](C)CC)C(N)=O)nn5)C(C)(C)[C@@H]4CC[C@@]3(C)[C@]1(C)CC2 (Ac-NNYTSLIHSLIEESQNQQEKNEQELL[βAla]K(X2)-NH2)	3.3 nM
C=C(C)[C@@H]1CC[C@]2(C(=O)O)CC[C@]3(C)[C@H](CC[C@@H]4[C@@]5(C)CC[C@H](OC(=O)CCc6cn(CC(=O)NCCCC[C@H](NC(=O)CCNC(=O)[C@H](CC(C)C)NC(=O)[C@H](CC(C)C)NC(=O)[C@H](CCC(=O)O)NC(=O)[C@H](CCC(N)=O)NC(=O)[C@H](CCC(=O)O)NC(=O)[C@H](CC(N)=O)NC(=O)[C@H](CCCCN)NC(=O)[C@H](CCC(=O)O)NC(=O)[C@H](CCC(N)=O)NC(=O)[C@H](CCC(N)=O)NC(=O)[C@H](CC(N)=O)NC(=O)[C@H](CCC(N)=O)NC(=O)[C@H](CO)NC(=O)[C@H](CCC(=O)O)NC(=O)[C@H](CCC(=O)O)NC(=O)[C@@H](NC(=O)[C@H](CC(C)C)NC(=O)[C@H](CO)NC(=O)[C@H](Cc7cnc[nH]7)NC(=O)[C@@H](NC(=O)[C@H](CC(C)C)NC(=O)[C@H](CO)NC(=O)[C@@H](NC(=O)[C@H](Cc7ccc(O)cc7)NC(=O)[C@H](CC(N)=O)NC(=O)[C@H](CC(N)=O)NC(C)=O)[C@@H](C)O)[C@@H](C)CC)[C@@H](C)CC)C(N)=O)nn6)C(C)(C)[C@@H]5CC[C@]43C)[C@@H]12 (Ac-NNYTSLIHSLIEESQNQQEKNEQELL[βAla]K(X3)-NH2)	44 nM
C=C(C)[C@@H]1CC[C@]2(C(=O)OCc3cn(CC(=O)NCCCC[C@H](NC(=O)CCNC(=O)[C@H](CC(C)C)NC(=O)[C@H](CC(C)C)NC(=O)[C@H](CCC(=O)O)NC(=O)[C@H](CCC(N)=O)NC(=O)[C@H](CCC(=O)O)NC(=O)[C@H](CC(N)=O)NC(=O)[C@H](CCCCN)NC(=O)[C@H](CCC(=O)O)NC(=O)[C@H](CCC(N)=O)NC(=O)[C@H](CCC(N)=O)NC(=O)[C@H](CC(N)=O)NC(=O)[C@H](CCC(N)=O)NC(=O)[C@H](CO)NC(=O)[C@H](CCC(=O)O)NC(=O)[C@H](CCC(=O)O)NC(=O)[C@@H](NC(=O)[C@H](CC(C)C)NC(=O)[C@H](CO)NC(=O)[C@H](Cc4cnc[nH]4)NC(=O)[C@@H](NC(=O)[C@H](CC(C)C)NC(=O)[C@H](CO)NC(=O)[C@@H](NC(=O)[C@H](Cc4ccc(O)cc4)NC(=O)[C@H](CC(N)=O)NC(=O)[C@H](CC(N)=O)NC(C)=O)[C@@H](C)O)[C@@H](C)CC)[C@@H](C)CC)C(N)=O)nn3)CC[C@]3(C)[C@H](CC[C@@H]4[C@@]5(C)CC[C@H](O)C(C)(C)[C@@H]5CC[C@]43C)[C@@H]12 (Ac-NNYTSLIHSLIEESQNQQEKNEQELL[βAla]K(X4)-NH2)	20 nM
C=C(C)[C@@H]1CC[C@]2(C(=O)OCc3cn(CC(=O)NCCCC[C@H](NC(=O)CCNC(=O)[C@H](CC(C)C)NC(=O)[C@H](CC(C)C)NC(=O)[C@H](CCC(=O)O)NC(=O)[C@H](CCC(N)=O)NC(=O)[C@H](CCC(=O)O)NC(=O)[C@H](CC(N)=O)NC(=O)[C@H](CCCCN)NC(=O)[C@H](CCC(=O)O)NC(=O)[C@H](CCC(N)=O)NC(=O)[C@H](CCC(N)=O)NC(=O)[C@H](CC(N)=O)NC(=O)[C@H](CCC(N)=O)NC(=O)[C@H](CO)NC(=O)[C@H](CCC(=O)O)NC(=O)[C@H](CCC(=O)O)NC(=O)[C@@H](NC(=O)[C@H](CC(C)C)NC(=O)[C@H](CO)NC(=O)[C@H](Cc4cnc[nH]4)NC(=O)[C@@H](NC(=O)[C@H](CC(C)C)NC(=O)[C@H](CO)NC(=O)[C@@H](NC(=O)[C@H](Cc4ccc(O)cc4)NC(=O)[C@H](CC(N)=O)NC(=O)[C@H](CC(N)=O)NC(C)=O)[C@@H](C)O)[C@@H](C)CC)[C@@H](C)CC)C(N)=O)nn3)CC[C@]3(C)[C@H](CC[C@@H]4[C@@]5(C)CC[C@H](OC(C)=O)C(C)(C)[C@@H]5CC[C@]43C)[C@@H]12 (Ac-NNYTSLIHSLIEESQNQQEKNEQELL[βAla]K(X5)-NH2)	7.9 nM
C=CCOC(=O)[C@]12CC[C@@H](C)[C@H](C)[C@H]1C1=CC[C@@H]3[C@@]4(C)CC[C@H](OC(=O)CCc5cn(CC(=O)NCCCC[C@H](NC(=O)CCNC(=O)[C@H](CC(C)C)NC(=O)[C@H](CC(C)C)NC(=O)[C@H](CCC(=O)O)NC(=O)[C@H](CCC(N)=O)NC(=O)[C@H](CCC(=O)O)NC(=O)[C@H](CC(N)=O)NC(=O)[C@H](CCCCN)NC(=O)[C@H](CCC(=O)O)NC(=O)[C@H](CCC(N)=O)NC(=O)[C@H](CCC(N)=O)NC(=O)[C@H](CC(N)=O)NC(=O)[C@H](CCC(N)=O)NC(=O)[C@H](CO)NC(=O)[C@H](CCC(=O)O)NC(=O)[C@H](CCC(=O)O)NC(=O)[C@@H](NC(=O)[C@H](CC(C)C)NC(=O)[C@H](CO)NC(=O)[C@H](Cc6cnc[nH]6)NC(=O)[C@@H](NC(=O)[C@H](CC(C)C)NC(=O)[C@H](CO)NC(=O)[C@@H](NC(=O)[C@H](Cc6ccc(O)cc6)NC(=O)[C@H](CC(N)=O)NC(=O)[C@H](CC(N)=O)NC(C)=O)[C@@H](C)O)[C@@H](C)CC)[C@@H](C)CC)C(N)=O)nn5)C(C)(C)[C@@H]4CC[C@@]3(C)[C@]1(C)CC2 (Ac-NNYTSLIHSLIEESQNQQEKNEQELL[βAla]K(X9)-NH2)	3.4 nM
CCCc1cn(CC(=O)NCCCC[C@H](NC(=O)CCNC(=O)[C@H](CC(C)C)NC(=O)[C@H](CC(C)C)NC(=O)[C@H](CCC(=O)O)NC(=O)[C@H](CCC(N)=O)NC(=O)[C@H](CCC(=O)O)NC(=O)[C@H](CC(N)=O)NC(=O)[C@H](CCCCN)NC(=O)[C@H](CCC(=O)O)NC(=O)[C@H](CCC(N)=O)NC(=O)[C@H](CCC(N)=O)NC(=O)[C@H](CC(N)=O)NC(=O)[C@H](CCC(N)=O)NC(=O)[C@H](CO)NC(=O)[C@H](CCC(=O)O)NC(=O)[C@H](CCC(=O)O)NC(=O)[C@@H](NC(=O)[C@H](CC(C)C)NC(=O)[C@H](CO)NC(=O)[C@H](Cc2cnc[nH]2)NC(=O)[C@@H](NC(=O)[C@H](CC(C)C)NC(=O)[C@H](CO)NC(=O)[C@@H](NC(=O)[C@H](Cc2ccc(O)cc2)NC(=O)[C@H](CC(N)=O)NC(=O)[C@H](CC(N)=O)NC(C)=O)[C@@H](C)O)[C@@H](C)CC)[C@@H](C)CC)C(N)=O)nn1 (Ac-NNYTSLIHSLIEESQNQQEKNEQELL[βAla]K(X11)-NH2)	2180 nM
C=CCOC(=O)[C@]12CC[C@@H](C(=C)C)[C@@H]1[C@H]1CC[C@@H]3[C@@]4(C)CC[C@H](OC(=O)CCc5cn(CC(=O)NCCC(=O)N[C@@H](CC(N)=O)C(=O)N[C@@H](CC(N)=O)C(=O)N[C@@H](Cc6ccc(O)cc6)C(=O)N[C@H](C(=O)N[C@@H](CO)C(=O)N[C@@H](CC(C)C)C(=O)N[C@H](C(=O)N[C@@H](Cc6cnc[nH]6)C(=O)N[C@@H](CO)C(=O)N[C@@H](CC(C)C)C(=O)N[C@H](C(=O)N[C@@H](CCC(=O)O)C(=O)N[C@@H](CCC(=O)O)C(=O)N[C@@H](CO)C(=O)N[C@@H](CCC(N)=O)C(=O)N[C@@H](CC(N)=O)C(=O)N[C@@H](CCC(N)=O)C(=O)N[C@@H](CCC(N)=O)C(=O)N[C@@H](CCC(=O)O)C(=O)N[C@@H](CCCCN)C(=O)N[C@@H](CC(N)=O)C(=O)N[C@@H](CCC(=O)O)C(=O)N[C@@H](CCC(N)=O)C(=O)N[C@@H](CCC(=O)O)C(=O)N[C@@H](CC(C)C)C(=O)N[C@@H](CC(C)C)C(N)=O)[C@@H](C)CC)[C@@H](C)CC)[C@@H](C)O)nn5)C(C)(C)[C@@H]4CC[C@@]3(C)[C@]1(C)CC2 ({X1-βAla}-NNYTSLIHSLIEESQNQQEKNEQELL-NH2)	197 nM
C=C(C)[C@@H]1CC[C@]2(C(=O)O)CC[C@]3(C)[C@H](CC[C@@H]4[C@@]5(C)CC[C@H](OC(=O)CCc6cn(CC(=O)NCCC(=O)N[C@@H](CC(N)=O)C(=O)N[C@@H](CC(N)=O)C(=O)N[C@@H](Cc7ccc(O)cc7)C(=O)N[C@H](C(=O)N[C@@H](CO)C(=O)N[C@@H](CC(C)C)C(=O)N[C@H](C(=O)N[C@@H](Cc7cnc[nH]7)C(=O)N[C@@H](CO)C(=O)N[C@@H](CC(C)C)C(=O)N[C@H](C(=O)N[C@@H](CCC(=O)O)C(=O)N[C@@H](CCC(=O)O)C(=O)N[C@@H](CO)C(=O)N[C@@H](CCC(N)=O)C(=O)N[C@@H](CC(N)=O)C(=O)N[C@@H](CCC(N)=O)C(=O)N[C@@H](CCC(N)=O)C(=O)N[C@@H](CCC(=O)O)C(=O)N[C@@H](CCCCN)C(=O)N[C@@H](CC(N)=O)C(=O)N[C@@H](CCC(=O)O)C(=O)N[C@@H](CCC(N)=O)C(=O)N[C@@H](CCC(=O)O)C(=O)N[C@@H](CC(C)C)C(=O)N[C@@H](CC(C)C)C(N)=O)[C@@H](C)CC)[C@@H](C)CC)[C@@H](C)O)nn6)C(C)(C)[C@@H]5CC[C@]43C)[C@@H]12 ({X3-βAla}-NNYTSLIHSLIEESQNQQEKNEQELL-NH2)	15 nM
